Patent US4588715A, “Heptenoic acid derivatives” (Sandoz, Inc., priority 1984, dated 1986)
pIC50: −log10 of the molar value. Where “and” joins values, the source holds several entries; their conditions need not be identical. Equal values may be shown once. Read-outs that look alike come from different tables or passages of the source.

Assays:
[1] = test system: Cholesterol Biosynthesis; test: Test B. In Vitro Cell Culture Cholesterol Biosynthesis Screen (Fu5AH rat hepatoma cell line); assay type: cell-based; conditions: Fu5AH rat hepatoma cells, [14C]acetate, 3 hours; for inhibition at 10 µM: concentration 10 μM; for inhibition at 1 µM: concentration 1 μM
Experimental: Test B. In Vitro Cell Culture Cholesterol Biosynthesis Screen
The cell culture is prepared as follows: Stock monolayer cultures of the Fu5AH rat hepatoma cell line (originally obtained from G. Rothblat; see Rothblat, Lipids 9, 526-535 (1974) are routinely maintained in Eagle's Minimum Essential Medium (EMEM) supplemented with 10% fetal bovine serum (FBS) in 75 cm^2. tissue culture flasks. For these studies, when the cultures reach confluence, they are removed by mild enzymatic treatment with 0.25% trypsin in Hanks' balanced salt solution (without calcium and magnesium). After centrifugation of the cell suspension and aspiration of the enzymatic solution, the cell pellet is resuspended in an appropriate volume of media for seeding into 60 mm. tissue culture dishes. The cultures are incubated at 37° C. in an atmosphere of high humidity and 5% carbon dioxide. When the cultures are confluent (approximately 5 days), they are ready for use. The culture media is aspirated from the dishes and replaced with 3 ml. of EMEM supplemented with 5 mg./ml. of delipidized serum protein (DLSP) prepared by the method of Rothblat et al., In Vitro 12, 554-557 (1976). […] Enhanced 3-hydroxy-3-methylglutaryl Coenzyme A reductase (HMG-CoA reductase) activity is measurable in the cells in response to the lack of exogenous sterol. Following approximately 24 hours incubation at 37° C. in the DLSP supplemented media, the assay is initiated by the addition of 3μCi of [^14 C]acetate and the test substances solubilized in dimethylsulfoxide (DMSO) or distilled water. Solvent controls and compactin-treated controls are always prepared. Triplicate 60 mm. tissue culture dishes are run for each group. After 3 hours incubation at 37° C., the cultures are examined microscopically using an inverted phase contrast microscope. Notations are made of any morphological changes which may have occurred in the cultures. The media is aspirated and the cell layer is gently washed twice with 0.9% sodium chloride solution (saline). The cell layer is then harvested in 3 ml. of 0.9% saline by gentle scraping with a rubber policeman and transferred to a clean glass tube with Teflon lined cap. The dishes are rinsed with 3 ml. of 0.9 % saline and rescraped, and the cells are combined with the first harvest. The tubes are centrifuged at 1500 r.p.m. for 10 minutes in an IEC PR-J centrifuge, and the supernatant is aspirated.
The cells are then extracted as follows: One ml. of 100% ethanol is added to the cell pellet followed by sonication for 10 seconds with a "LO" setting of 50 on a Bronwell Biosonik IV. One hundred μL. are taken for protein determination. One ml. of 15% potassium hydroxide (KOH) is added, and the samples are thoroughly vortexed. Saponification is accomplished by heating the ethanol-KOH treated samples at 60° C. for 60 minutes in a water bath. Following dilution of the samples with 2 ml. of distilled water, they are extracted three times with 7 ml. of petroleum ether. The petroleum ether extracts are then washed three times with 2 ml. of distilled water and finally taken to dryness under a stream of nitrogen.
The obtained samples are then analyzed by thin layer chromatography (TLC) as follows: Residues from the petroleum ether extraction are taken up in a small volume of hexane and spotted on silica gel 60 TLC plates (E. Merck). Development of the plates is carried out in a 150 parts by volume hexane: 50 parts by volume diethyl ether: 5 parts by volume glacial acetic acid solvent system using a three phase development procedure. Visualization is accomplished in an iodine vapor chamber. The plates are divided into five sections such that each section contains the molecules having the following approximate Rf values: section 1-0-0.4, section 2-0.4-0.55, section 3-0.55-0.7, section 4-0.7-0.9 and section 5-0.9-1.0. Section 2 contains the non-saponifiable sterols. The five sections of the TLC plates are scraped into scintillation vials. […]

[2] = target: T1, HMG-CoA reductase (Rattus norvegicus, UniProt P51639); test: Test A. In Vitro Microsomal Assay of HMG-CoA Reductase Inhibition; assay type: biochemical; conditions: saponified products M=Na, unsaponified products tested in DMA
T1 construct: the microsomes are the source of the HMG-CoA reductase enzyme; from tissue; host or cells: liver microsomes, male Sprague-Dawley rats
T1 sequence (P51639 1-887): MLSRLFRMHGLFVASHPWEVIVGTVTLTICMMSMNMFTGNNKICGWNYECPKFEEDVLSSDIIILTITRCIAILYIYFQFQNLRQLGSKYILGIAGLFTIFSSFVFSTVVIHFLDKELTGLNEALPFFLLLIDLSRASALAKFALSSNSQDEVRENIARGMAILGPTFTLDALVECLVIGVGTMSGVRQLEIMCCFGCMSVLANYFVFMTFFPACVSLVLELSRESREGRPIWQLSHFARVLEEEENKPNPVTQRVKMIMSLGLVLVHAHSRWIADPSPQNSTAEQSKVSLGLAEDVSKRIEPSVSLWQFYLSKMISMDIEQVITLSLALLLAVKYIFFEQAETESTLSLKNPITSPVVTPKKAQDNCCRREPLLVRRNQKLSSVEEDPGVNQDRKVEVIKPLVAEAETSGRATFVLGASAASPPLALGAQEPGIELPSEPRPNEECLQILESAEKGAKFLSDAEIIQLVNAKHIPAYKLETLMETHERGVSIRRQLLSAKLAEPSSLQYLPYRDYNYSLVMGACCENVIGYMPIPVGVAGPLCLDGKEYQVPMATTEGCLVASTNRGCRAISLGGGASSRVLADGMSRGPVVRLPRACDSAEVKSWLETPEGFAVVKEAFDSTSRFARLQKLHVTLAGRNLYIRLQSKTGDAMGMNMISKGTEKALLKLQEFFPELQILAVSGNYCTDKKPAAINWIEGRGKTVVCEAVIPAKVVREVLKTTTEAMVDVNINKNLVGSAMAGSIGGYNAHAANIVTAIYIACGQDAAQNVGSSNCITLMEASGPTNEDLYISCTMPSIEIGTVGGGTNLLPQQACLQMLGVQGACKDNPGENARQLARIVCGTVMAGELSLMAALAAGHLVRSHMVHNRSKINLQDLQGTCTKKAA
Experimental: Test A. In Vitro Microsomal Assay of HMG-CoA Reductase Inhibition
200 μl. aliquots (1.08-1.50 mg./ml.) of rat liver microsomal suspensions, freshly prepared from male Sprague-Dawley rats (150-225 g. body weight), in Buffer A with 10 mmol. dithiothreitol are incubated with 10 μl. test substance dissolved in dimethylacetamide and assayed for HMG-CoA reductase activity as described by Ackerman et al., J. Lipid Res. 18,408-413 (1977). In the assay the microsomes are the source of the HMG-CoA reductase enzyme which catalyzes the reduction of HMG-CoA to mevalonate. The assay employs a chloroform extraction to separate the product, [^14 C]mevalonolactone, formed by the HMG-CoA reductase reaction from the subsubstrate, [^14 C]HMG-CoA. [^3 H]mevalonolactone is added as an internal reference. Inhibition of HMG-CoA reductase is calculated from the decrease in specific activity [^14 C/^3 H]mevalonate) of test groups compared to controls.
IC50 is the concentration of the test substance in the assay system

[3] = test system: Cholesterol Biosynthesis; test: Test C: In Vivo Cholesterol Biosynthesis Inhibition Tests; set-up: species or system male Wistar Royal Hart rats; conditions: for ED50: Rattus norvegicus
Experimental: Test C: In Vivo Cholesterol Biosynthesis Inhibition Tests: In vivo studies utilize male Wistar Royal Hart rats weighing 150±20 g. which have been kept for 7-10 days on an altered light cycle (6:30 A.M.-6:30 P.M. dark) housed two per cage and fed powdered Purina Rat Chow and water ad libitum. Three hours before the diurnal maximum of cholesterol synthesis at mid-dark, the rats are administered the test substances dissolved or as a suspension in 0.5% carboxymethylcellulose in a volume of 1 ml./100 g. body weight. Controls receive vehicle alone. One hour after receiving the test substance, the rats are injected intraperitoneally with about 25 μCi/100 g. body weight of sodium [1-^14 C]acetate 1-3 mCi/mmol. Two hours after mid-dark, blood samples are obtained under sodium hexobarbitol anesthesia and the serum separated by centrifugation.
Serum samples are saponified and neutralized, and the 3β-hydroxy sterols are precipitated with digitonin basically as described by Sperry et al., J. Biol. Chem. 187,97 (1950). The [^14 C]digitonides are then counted by liquid scintillation spectrometry. After correcting for efficiencies, the results are calculated in nCi (nanocuries) of sterol formed per 100 ml. of serum. Inhibition of sterol synthesis is calculated from the reduction in the nCi of sterols formed from test groups compared to controls.

SMILES | inhibition at 10 µM [1] [%] | pIC50 ([2]; IC50, rat liver microsomes) | further results
C[Si](c1ccccc1)(c1ccccc1)c1ccccc1/C=C/[C@@H]1C[C@@H](O)CC(=O)O1 (relative stereo) [Example 3 (Ia"'), 4-Hydroxy-6{2-[2-(methyldiphenylsilyl)phenyl]ethenyl}-2H-tetrahydropyran-2-one(trans,trans)] | 74 | – | –
C[Si](C)(c1ccccc1)c1ccccc1/C=C/[C@@H]1C[C@@H](O)CC(=O)O1 (relative stereo) [Example 4 (Ia"'), 4-Hydroxy-6{2-[2-(dimethylphenylsilyl)phenyl]ethenyl}-2H-tetrahydropyran-2-one] | 56 | – | –
CCOC(=O)C[C@H](O)C[C@H](O)/C=C/c1c(C)cc(C)cc1[Si](C)(C)c1ccccc1 (relative stereo) [Example 5a (Ia')] | – | 4.83 | inhibition at 1 µM [1]: 47%
CCOC(=O)C[C@H](O)C[C@H](O)/C=C/c1c(C)cc(OC)cc1[Si](C)(C)c1ccccc1 (relative stereo) [Example 5e (Ia')] | 28 | – | –
Cc1cc(C)c(/C=C/[C@@H]2C[C@@H](O)CC(=O)O2)c([Si](C)(C)c2ccccc2)c1 (relative stereo) [Example 6a (Ia"')] | 73 | – | –
Cc1cc(C)c(/C=C/[C@@H](O)C[C@@H](O)CC(=O)O)c([Si](C)(C)c2ccccc2)c1 (relative stereo) [Example 6a (Ia^s)] | – | 5.16 | –
Cc1cc(Cl)cc([Si](C)(C)c2ccccc2)c1/C=C/[C@@H]1C[C@@H](O)CC(=O)O1 (relative stereo) [Example 6b (Ia"')] | – | 4.79 | –
Cc1cc(Cl)cc([Si](C)(C)c2ccccc2)c1/C=C/[C@@H](O)C[C@@H](O)CC(=O)O (relative stereo) [Example 6b (Ia^s)] | – | 4.77 and 4.85 | –
Cc1cccc([Si](C)(C)c2ccccc2)c1/C=C/[C@@H]1C[C@@H](O)CC(=O)O1 (relative stereo) [Example 6g (Ia"')] | 65 | 4.57 | % Inhibition ([3]; dose 48 mg/kg, serum sterol synthesis, rats): 57%
Cc1cccc([Si](C)(C)c2ccccc2)c1/C=C/[C@@H](O)C[C@@H](O)CC(=O)O (relative stereo) [Example 6g (Ia^s)] | – | 5.37 | –
CCOC(=O)C[C@H](O)C[C@H](O)/C=C/c1c(C)cc(Cl)cc1[Si](C)(c1ccccc1)c1ccccc1 (relative stereo) [Example 7a (Ia')] | 17 | – | –
Cc1cc(Cl)cc([Si](C)(c2ccccc2)c2ccccc2)c1/C=C/[C@@H]1C[C@@H](O)CC(=O)O1 (relative stereo) [Example 8a (Ia"')] | 33 | – | –
Cc1cccc([Si](C)(c2ccccc2)c2ccccc2)c1/C=C/[C@@H](O)C[C@@H](O)CC(=O)O (relative stereo) [Example 8b (Ia^s)] | – | 4.28 | –
CCOC(=O)C[C@H](O)C[C@H](O)/C=C/c1c(C)ccc(C)c1[Si](C)(C)c1ccccc1 (relative stereo) [Example 9 (Ib'), Ethyl 7-[3,6-dimethyl-(2-dimethylphenylsilyl)-phenyl]-3,5-dihydroxy hept-6-enoate, (erythro,trans)] | – | 4.55 | inhibition at 1 µM [1]: 19%
Cc1ccc(C)c([Si](C)(C)c2ccccc2)c1/C=C/[C@@H]1C[C@@H](O)CC(=O)O1 (relative stereo) [Example 10 (Ib"'), 6-{2-[3,6-dimethyl-2-(dimethylphenylsilyl)phenyl]ethenyl}4-hydroxy-tetrahydro-2H-pyran-2-one (trans,trans)] | 63 | 4.61 | –
Cc1ccc(C)c([Si](C)(C)c2ccccc2)c1/C=C/[C@@H](O)C[C@@H](O)CC(=O)O (relative stereo) [Example 10 (Ib^s)] | – | 5.05 | –
CC[C@H](C)C(=O)O[C@H]1C[C@@H](C)C=C2C=C[C@H](C)[C@H](CC[C@@H]3C[C@@H](O)CC(=O)O3)[C@H]21 [Mevinolin] | – | – | ED50 [3]: 0.41 mg/kg
CC[C@H](C)C(=O)O[C@H]1CCC=C2C=C[C@H](C)[C@H](CC[C@@H]3C[C@@H](O)CC(=O)O3)[C@H]21 [compactin, reference compound] | – | – | ED50 ([3]; standard, serum sterol synthesis, rats, read-out: ED50): 3.5 mg/kg; pIC50 ([2]; rat liver microsomes, read-out: IC50): 6.10; inhibition at 0.08 µM ([1]; concentration 0.08 μM): 50%
